Assay results taken from PMC7247425, “MRP1-Collateral Sensitizers as a Novel Therapeutic Approach in Resistant Cancer Therapy: An In Vitro and In Vivo Study in Lung Resistant Tumor” (International Journal of Molecular Sciences, 2020).

How the values were obtained:
in vitro = format: cell-based; settings: human
Description: Nevertheless, the involvement of a sigma-2 receptor-mediated effect was ruled out by the detection of a low density of sigma-2 receptors in A549 cells (data not shown). […].

A549/DX cells = assay: In vivo tumor growth of A549/DX xenografts; design: species or system nu/nu BALB/C mice; settings: for Tumor growth, single agent: A549/DX xenografts in nu/nu BALB/C mice, 750 nmoles i.p. on day 1, 7, 14; for Tumor growth, co-administration with MK571 / Tumor growth, co-administration with cis-Pt: A549/DX xenografts; for Tumor growth, co-administration with MK571: 750 nmoles + 3 mg/kg MK571 i.p.; for Tumor growth, co-administration with cis-Pt: 750 nmoles + 50 mg/kg cis-Pt i.p.
Procedure: In order to translate in vivo the capability of F397, F400, and F421 to act as “sensitizers”, A549/DX cells were implanted in immune-deficient BALB/C mice, and once the tumor reached the volume of 50 mm^3, the mice were randomized and treated […] with the vehicle (saline solution) and/or cis-Pt.
(§1) Here, 1 × 10^6 A549/DX cells were mixed with 100 μl Matrigel implanted in 6-week-old female nu/nu BALB/C mice (Charles River Laboratories Italia, Calco, Italy), housed (5 per cage) under 12 h light/dark cycle, with food and drinking provided ad libitum. Tumor growth was measured daily by caliper, according to the equation (LxW2)/2, where L = tumor length and W = tumor width. When the tumor reached the volume of 50 mm^3, mice (n = 8/group) were randomized and treated as reported in the following groups, treated on day 1, 7, and 14 after randomization: (1) vehicle group (ctrl), treated intraperitoneally (i.p.) with 100 µL saline solution; (2) cis-Pt group, treated i.p. with 50 mg/kg cis-Pt, dissolved in 100 µL water/10% DMSO solution, according to Kopecka et al., 2015 [53]; (3) F397 group, treated i.p. with 750 nmoles of the compound, dissolved in 100 µL water/10% DMSO solution, corresponding to the maximum tolerated dose (not shown and Table 2); (4) F421 group, treated i.p. with 750 nmoles of the compound, dissolved in 100 µL water/10% DMSO solution i.p, corresponding to the maximum tolerated dose (not shown and Table 2); (5) cis-Pt/F397 group, treated i.p. with 50 mg/kg Cis-Pt and 750 nmoles of F397; (6) cis-Pt/F421 group, treated i.p. with 50 mg/kg cis-Pt and 750 nmoles of F421; (7) MK571 group, treated i.p. with 3 mg/kg MK571 dissolved in 100 µL water/10% DMSO solution, according to Jones et al., 1989 [56]; (8) MK571/F397 group, treated i.p. with 3 mg/kg MK571 and 750 nmoles of F397; (9) MK571/F421 group, treated i.p. with 3 mg/kg MK571 and 750 nmoles of F421. Tumor volumes were monitored daily. Animals were euthanized at day 21 after randomization with zolazepam (0.2 mL/kg) and xylazine (16 mg/kg). Lactate dehydrogenase (LDH), aspartate aminotransferase (AST), alanine aminotransferase (ALT), alkaline phosphatase (AP), creatinine, and creatine phosphokinase (CPK) were measured on blood samples collected immediately after euthanasia, using commercially available kits from Beckman Coulter Inc. (Beckman Coulter, Miami, FL, USA).

MDCK-MRP1 cells = assay: Antiproliferative MTT assay in MDCK-wt and MDCK-MRP1 cells, selectivity ratio; format: cell-based, canine; settings: EC50 of MDCK cells/EC50 of MDCK-MRP1 cells
Procedure: Within the search for novel CS agents acting on MRP1 proteins, the compounds selected among the different series of sigma-2 ligands were investigated for their activity at MRP1, paralleled with their cytotoxicity in the parental Madin–Darby canine kidney (MDCK-wt) cells and in the MDR-derived cells (MDCK-MRP1) for the determination of their SR (EC50 parental cells/EC50 MDR cells). The activity at the MRP1 pump was determined measuring the transport inhibition of the pro-fluorescent probe Calcein-AM, an MRP1 substrate, in the MRP1-overexpressing cell line (MDCK-MRP1) by the in vitro biological assay usually performed to study an MRP1 interaction. […] The SR was measured as the EC50 of the MDCK cells/EC50 of the MDCK-MRP1 cells.
The determination of cell growth was performed using an MTT assay at 24 or 72 h. On day 1, 10,000 cells/well were seeded into 96-well plates in a volume of 100 μL. […] In all the experiments, the various drug solvents (ethanol, DMSO) were added in each control to evaluate a possible solvent cytotoxicity. After the established incubation time with drugs, 10 μL MTT (0.5 mg/mL) was added to each well, and after 3 h incubation at 37°C, the supernatant was removed. The formazan crystals were solubilized using 100 μL of DMSO and the absorbance values at 570 and 630 nm were determined on the microplate reader Victor 3 from PerkinElmer Life Sciences. The absorbance of the untreated cells was considered equal to 100% cell viability; the viability of cells measured in each experimental condition was expressed as a percentage of viable cells in the considered condition vs. the viability of the untreated cells.

[1] = Hemato-chemical parameters and tolerability in treated mice; format: in vivo; design: Creatinine: unit not given here; settings: for ALT / AP / AST / CPK / Creatinine / LDH: blood after euthanasia day 21, i.p. treatment day 1, 7, 14, means ± SD, n = 8; for Maximum tolerated dose: i.p., in 100 µL water/10% DMSO, mice (not shown)
Procedure: as §1

[2] = Solubility in solvents suitable for in vivo studies; format: physicochemical
Description: Of note, the dose of F397 and F421 effective as an anti-tumor agent in vivo was lower than the dosage effective as an anti-proliferative agent in vitro. One possible reason could be that part of the anti-tumor effect of the compounds was mediated by their activity on the tumor microenvironment, not necessarily only on tumor cells. This aspect cannot be evaluated in the viability assays performed in vitro and could lead to an underestimation of the compounds’ potency. Further, the repeated administration of F397 and F421 followed in vivo instead of the single dosage used in vitro can be an additional explanation. […] This could also be the case of F397 and F421 against A549/DX tumors. […] It is also worth noting that the treatment was not toxic for liver, heart, and kidney compared with the control, as shown from the hemato-chemical parameters of the animals (Table 2).

MCF7/DX = test system: MCF7/DX; design: method as in PMID 24106081; settings: resistant MCF7/DX overexpressing P-gp; read-out: EC50, cytotoxic activity in MCF7/DX; cited from earlier work
MCF7 cell line = test system: MCF7 cell line; design: method as in PMID 24106081; settings: MCF7 cells; read-out: EC50, cytotoxicity in MCF7; cited from earlier work
P-gp = test system: P-gp; design: method as in PMID 24106081; settings: MCF7 cell line; read-out: EC50, P-gp inhibition; cited from earlier work

Structure (SMILES)	EC50 (in vitro)	Tumor growth, single agent (A549/DX cells)	Tumor growth, co-administration with MK571 (A549/DX cells)	Tumor growth, co-administration with cis-Pt (A549/DX cells)	SR (selectivity ratio) (MDCK-MRP1 cells)	ALT [1]	AP [1]	AST [1]	CPK [1]	Creatinine [1]	LDH [1]	Maximum tolerated dose [1]	Solubility in solvents suitable for in vivo studies [2]	EC50 (MCF7/DX)	EC50 (MCF7 cell line)	EC50 (P-gp)
COc1ccc(CNCCCCc2cn(-c3ccc(F)cc3)c3ccccc23)cc1OC [F421, N-{4-[1-(4-fluorophenyl)-1H-indol-3-yl]butyl}-3,4-dimethoxybenzylamine]	> 100 µM	low growth reduction	abated the cytotoxic effect	greatly reduced tumor growth	2.47	33 ± 13 U/L	143 ± 34 U/L	82 ± 37 U/L	321 ± 72 U/L	0.045 ± 0.011	7182 ± 892 U/L	750 nmol	–	–	–	–
COc1cc2c(cc1OC)CN(C(=O)CCC1CCCc3c(OC)cccc31)CC2 (centres unmarked) [F400, 6,7-dimethoxy-2-[3-(5-methoxy-1,2,3,4-tetrahydronaphthalen-1-yl)propionyl]-1,2,3,4 tetrahydroisoquinoline]	> 100 µM	–	–	–	5.91	–	–	–	–	–	–	–	could not be dissolved in solvents suitable for in vivo studies	–	–	–
COc1cc2c(cc1OC)CN(CCCCc1cn(-c3ccc(F)cc3)c3ccccc13)CC2 [F397, 6,7-dimethoxy-2-{4-[1-(4-fluorophenyl)-1H-indol-3-yl]butyl}-1,2,3,4-tetrahydroisoquinoline]	–	low growth reduction	abated the cytotoxic effect	greatly reduced tumor growth	3.41	37 ± 108 U/L	112 ± 32 U/L	81 ± 24 U/L	324 ± 72 U/L	0.043 ± 0.009	6729 ± 492 U/L	750 nmol	–	21.8 µM	17.8 µM	0.21 µM
